In series [1] the test system is peptic ulcer due to pyloric ligation. Kind of series: Effect on peptic ulcer due to pyloric ligation. The format is in vivo, male rats. The conditions noted are these: 100 mg/kg, intraperitoneal, rats; for Ulcer coefficient: just after pyloric ligation, 15 hours; for Rate of suppression of ulcer: pyloric ligation, versus control. How it is done: Six groups (10 animals per group) of male rats weighing 180 to 200 g were subjected to ligation of their pyloruses under ether-anesthesia after fasting for 48 hours according to the method of Shay et al. (refer to Gastroenterology, 5, page 43 (1945)).
Just after subjecting to ligation, each of the present compound suspended in an aqueous physiological saline solution was intraperitoneally administered to each rat, the control being injected with an aqueous physiological saline solution. Then, after 15 hours of fasting without taking water, the rats were sacrificed with ether and their stomachs were removed to examine under a microscope for anatomy. The length and width of the thus-formed ulcer in the stomach were determined and expressed by the product (mm^2), and the total sum of the products was represented as the ulcer coefficient.

Series [2] concerns duodenal peptic ulcer due to acetic acid. Kind of series: Effect on peptic ulcer due to acetic acid (duodenal ulcer). The format is in vivo, male rats. Particulars: 100 mg/kg, oral, rats; for Ulcer coefficient: 3 times a day for 10 days from third day; for Rate of suppression of ulcer: 3 times a day for 10 days, versus control. The text has this: The inventors of the present invention, taking into account of these situations, added to the above-mentioned method of evaluation the effect of accelerating the cure of the peptic ulcer by orally administering the present compound and a commercialized anti-peptic ulcer medicine, respectively to rats to which duodenal peptic ulcer due to acetic acid (refer to Okabe, 1971) considered to be most closely resembling to human peptic ulcer has been artificially formed.
Following the method of Okabe et al (refer to Amer. J. Dig. Dis., 16, […]), 6 groups (15 animals per group) of male rats weighing 240 to 260 g were subjected to laparotomy under ether anesthesia in which a metal circular frame was placed on the serosa at a distance of 5 to 7 mm from the duodenal pylorus, 0.06 ml of glacial acetic acid was poured into the frame. After 30 seconds, the liquid containing the acetic acid was removed and then the frame was removed. The test compound suspended in an aqueous 0.5% solution of carboxymethylcellulose was orally administered to the rat 3 times a day from the third day of the operation for consecutive 10 days. To the control group, only the solution of carboxymethylcellulose was administered. After the administration was over, the rats were sacrificed with ether, and their duodenum was removed to observe under a microscope for anatomy. The length and width of the thus-formed ulcer were measured and their product (expressed with mm^2) was recorded as the ulcer coefficient.
By the way, the above-mentioned experimental model has been highly evaluated internationally because the thus-formed ulcer is scarcely curable in nature and the histopathological change of the ulcer lesion closely resembles to that of human chronic ulcer as compared to the method of cautery-ulcer (refer to Skoryna, 1958) and the method of crumping-cortisone (refer to Umehara, 1965).

Series [3] can be described thus: Acute toxicity test, oral. On the set-up: species or system Female ICR-mice. Particulars: mouse, in vivo, mortality observed for a week, Litchfield-Wilcoxon. How it is done:
Female ICR-mice of body weight of 20 to 24 g, 5 weeks after birth were used.
Eight animal per group were kept in a transparent polycage at room temperature of 23°±1° C., and RH of 60 to 70%.
After minutely pulverizing each one of the present compounds, the pulverized compound was suspended in an aqueous 5% sodium carboxymethylcellulose solution containing 20% of Tween-80. The aqueous suspension was forcibly orally administered by a metal stomach tube, the dose rate having been adjusted by changing the concentration of the present compound in the aqueous suspension.
In some mortal cases, the rat's spontaneous movement was lowered with the reduction of general tension and the rats died as they were.

The next series deals with peptic ulcer. Particulars: cited from earlier work.

The source of these data is US4407799A, “2-Substituted-phenyl-1,3-perhydrothiazine-4-one” (priority 1980, dated 1983).

A value given as a limit tells only on which side of the number the result lay.

On to `CC(C)=CCCC(C)=CCCC(C)=CCCC(=O)OCC=C(C)CCC=C(C)C` [Positive control, 3,7dimethyl-2,6-octadienyl-5,9,13-trimethyl-4,8,12-tetradecatrienoate, reference compound], for which the results for the Ulcer coefficient in series [1] and in series [2] were 32.5 mm^2 and 6.1 mm^2, respectively. Besides, the “Rate of suppression of ulcer” value in series [1] is recorded as 12.2; in series [2] it was 20.0%.

As usually defined, the LD50 is the dose expected to kill half of the subjects tested. A low value points to a more toxic substance. `COc1ccc(C2NC(=O)CCS2)cc1` (centres unmarked) [Compound 4, 2-(4-methoxyphenyl)-1,3-perhydrothiazine-4-one]: in series [1], the Ulcer coefficient is recorded as 2.0 mm^2 and the “Rate of suppression of ulcer” value is given as 94.5. In addition, in series [2], the Ulcer coefficient was determined as 1.3 mm^2 and the “Rate of suppression of ulcer” value was 82.8%. The LD50 at 168 h in series [3] is greater than 8000 mg/kg.

On to `COc1ccccc1C1NC(=O)CCS1` (centres unmarked) [Compound 3, 2-(2-methoxyphenyl)-1,3-perhydrothiazine-4-one], for which, in series [1], the Ulcer coefficient is 2.4 mm^2 and the “Rate of suppression of ulcer” value stood at 93.5. Also, in series [2], the Ulcer coefficient came to 1.5 mm^2 and the “Rate of suppression of ulcer” value was determined as 80.2%. The same molecule yielded an LD50 at 168 h in series [3] greater than 8000 mg/kg.

As for `COc1cc(C2NC(=O)CCS2)cc(OC)c1OC` (centres unmarked) [Compound 1, 2-(3,4,5-trimethoxyphenyl)-1,3-perhydrothiazine-4-one], in series [1], the Ulcer coefficient came out at 9.3 mm^2 and the “Rate of suppression of ulcer” value came out at 74.9. In addition, in series [2], the Ulcer coefficient was determined as 2.5 mm^2 and the “Rate of suppression of ulcer” value came to 67.1%. Moreover, the LD50 at 168 h in series [3] worked out at 5400 mg/kg.

As to `COc1ccc(C2NC(=O)CCS2)cc1OC` (centres unmarked) [Compound 2, 2-(3,4-dimethoxyphenyl)-1,3-perhydrothiazine-4-one], in series [1], the Ulcer coefficient was 1.9 mm^2 and the “Rate of suppression of ulcer” value is on record as 94.3. Also, in series [2], the Ulcer coefficient was 2.0 mm^2 and the “Rate of suppression of ulcer” value came to 73.6%. For the same molecule, in series [3], the LD50 at 168 h was greater than 8000 mg/kg.

Regarding `CC1(C)[C@@H](OC(=O)CCC(=O)O)CC[C@]2(C)[C@H]3C(=O)C=C4[C@@H]5C[C@@](C)(C(=O)O)CC[C@]5(C)CC[C@@]4(C)[C@]3(C)CC[C@@H]12` [carbenoxolone], the Side effects entry with peptic ulcer was “aldosterone-like side effects to cause hypertension and weakening of muscular function”. Besides, the “Accelerating effect on ulcer-curing” value with peptic ulcer (commercialized medicine, background) is recorded as “excellent accelerating effect on the ulcer-curing”.
